# In patent US20210277246A1, “PROBE FOR DETECTING CARBAPENEM-RESISTANT BACTERIA AND USE THEREOF” (priority 2018, published 2021):
# Experiments:
# [1] = tested on: Klebsiella pneumoniae (VIM); test: MIC of carbapenems for isolates; assay type: cell-based; details: 1 isolate
# [2] = tested on: Klebsiella pneumoniae (GES); test: MIC of carbapenems for isolates; assay type: cell-based; details: 1 isolate
# [3] = tested on: Klebsiella pneumoniae (NDM/OXA); test: MIC of carbapenems for isolates; assay type: cell-based; details: NDM/OXA co-producing, 1 isolate
# [4] = tested on: Escherichia coli (KPC); test: MIC of carbapenems for isolates; assay type: cell-based; details: 3 isolates
# [5] = tested on: Citrobacter freundii (non-CP-CRE); test: MIC of carbapenems for isolates; assay type: cell-based; details: 1 isolate
# [6] = tested on: Enterobacter cloacae (non-CP-CRE); test: MIC of carbapenems for isolates; assay type: cell-based; details: 10 isolates
# [7] = tested on: Enterobacter cloacae (NDM); test: MIC of carbapenems for isolates; assay type: cell-based; details: 2 isolates
# [8] = tested on: Klebsiella pneumoniae (non-producer); test: MIC of carbapenems for isolates; assay type: cell-based; details: 21 isolates
# [9] = tested on: Klebsiella pneumoniae (NDM); test: MIC of carbapenems for isolates; assay type: cell-based; details: 1 isolate
# [10] = tested on: Escherichia coli (non-producer); test: MIC of carbapenems for isolates; assay type: cell-based; details: 32 isolates
# [11] = tested on: Klebsiella oxytoca (VIM); test: MIC of carbapenems for isolates; assay type: cell-based; details: 1 isolate
# [12] = tested on: Enterobacter cloacae (VIM); test: MIC of carbapenems for isolates; assay type: cell-based; details: 1 isolate
# [13] = tested on: Citrobacter freundii (KPC); test: MIC of carbapenems for isolates; assay type: cell-based; details: 1 isolate
# [14] = tested on: Escherichia coli (IMP); test: MIC of carbapenems for isolates; assay type: cell-based; details: 1 isolate
# [15] = tested on: Citrobacter freundii (NDM); test: MIC of carbapenems for isolates; assay type: cell-based; details: 1 isolate
# [16] = tested on: Citrobacter freundii (OXA); test: MIC of carbapenems for isolates; assay type: cell-based; details: 1 isolate
# [17] = tested on: Escherichia coli (NDM); test: MIC of carbapenems for isolates; assay type: cell-based; details: 4 isolates
# [18] = tested on: Klebsiella aerogenes (KPC); test: MIC of carbapenems for isolates; assay type: cell-based; details: 1 isolate
# [19] = tested on: Klebsiella oxytoca (KPC); test: MIC of carbapenems for isolates; assay type: cell-based; details: 1 isolate
# [20] = tested on: Morganella morganii (NDM); test: MIC of carbapenems for isolates; assay type: cell-based; details: 1 isolate
# [21] = tested on: Escherichia coli (non-CP-CRE); test: MIC of carbapenems for isolates; assay type: cell-based; details: 8 isolates
# [22] = tested on: Klebsiella pneumoniae (OXA); test: MIC of carbapenems for isolates; assay type: cell-based; details: 2 isolates
# [23] = tested on: Escherichia coli (OXA); test: MIC of carbapenems for isolates; assay type: cell-based; details: 3 isolates
# [24] = tested on: Klebsiella pneumoniae (ESBL-producer, CTX-M); test: MIC of carbapenems for isolates; assay type: cell-based; details: 24 isolates
# [25] = tested on: Klebsiella pneumoniae (non-CP-CRE); test: MIC of carbapenems for isolates; assay type: cell-based; details: 22 isolates
# [26] = tested on: Enterobacter amnigenus (non-CP-CRE); test: MIC of carbapenems for isolates; assay type: cell-based; details: Lelliottia amnigena, 4 isolates
# [27] = tested on: Klebsiella aerogenes (non-CP-CRE); test: MIC of carbapenems for isolates; assay type: cell-based; details: 3 isolates
# [28] = tested on: KPC; test: Fluorescent probe detection in lysed clinical isolates; assay type: biochemical, Enterobacteriaceae; details: Ambler class A, 33 isolates
# Method: (§1) The detection efficiency of carbapenemase-producing carbapenem-resistant bacteria of a control probe OMCL01201 (CPC-1 described in Chinese Patent Publication No. CN106279178A) and the OMCL01203 probe of the present disclosure was evaluated at Gangnam St. Mary's Hospital for the bacteria described in Table 1.
# (§2) Briefly, 10 μL of a sample was lysed with a Tris-HCl buffer (B-PER, Thermo Scientific Pierce) and then vortexed for 1 minute. After culturing for 30 minutes at room temperature and centrifuging for 5 minutes (10,000 g), 30 μL of the supernatant was reacted with 100 μL of PBS and 13 μL of the fluorescent probe (1 mM). Then, fluorescence was measured for 50 minutes with 5-minute intervals using a fluorescence plate reader (Infinite F200pro, Tecan Group Ltd.).
# [29] = tested on: KPC/OXA; test: as above; assay type: biochemical, Enterobacteriaceae; details: KPC/OXA co-producing; 2 isolates
# Method: as §1, §2
# [30] = tested on: VIM; test: as above; assay type: biochemical, Enterobacteriaceae; details: Ambler class B, 7 isolates
# Method: as §1, §2
# [31] = tested on: OXA; test: as above; assay type: biochemical, Enterobacteriaceae; details: Ambler class D, 6 isolates
# Method: as §1, §2
# [32] = tested on: NDM/OXA; test: as above; assay type: biochemical, Enterobacteriaceae; details: NDM/OXA co-producing; 1 isolate
# Method: as §1, §2
# [33] = tested on: GES; test: as above; assay type: biochemical, Enterobacteriaceae; details: Ambler class A, 2 isolates
# Method: as §1, §2
# [34] = tested on: IMP; test: as above; assay type: biochemical, Enterobacteriaceae; details: Ambler class B, 1 isolate
# Method: as §1, §2
# [35] = tested on: NDM; test: as above; assay type: biochemical, Enterobacteriaceae; details: Ambler class B, 9 isolates
# Method: as §1, §2
# [36] = tested on: OXA; test: Fluorogenic assay (OMCL01203 probe); assay type: biochemical; details: Escherichia coli, 3 isolates, number of isolates in brackets
# Method: as §2
# (§3) In addition, the detection efficiency of the fluorescence detection method using the OMCL01203 probe was compared for carbapenemase-producing carbapenem-resistant bacteria (CP-CRE) and non-carbapenemase-producing carbapenem-resistant bacteria (non-CP-CRE) with mCIM, CarbaNP and CIT methods.
# [37] = tested on: GES; test: Fluorogenic assay (OMCL01203 probe); assay type: biochemical; details: Klebsiella pneumoniae, 1 isolate
# Method: as §2, §3
# [38] = tested on: non-CPE (negative bacteria); test: Fluorogenic assay (OMCL01203 probe), all non-CPE of Table 2; assay type: biochemical
# Method: as §2, §3
# [39] = tested on: KPC; test: Fluorogenic assay (OMCL01203 probe); assay type: biochemical; parameters: key: Pos, positive; Neg, negative
# Method: as §2, §3
# [40] = tested on: KPC/OXA; test: Fluorogenic assay (OMCL01203 probe); assay type: biochemical; parameters: key: Pos, positive; Neg, negative; details: KPC/OXA co-producing; Klebsiella pneumoniae; 2 isolates
# Method: as §2, §3
# [41] = tested on: CTX-M (ESBL-producer); test: Fluorogenic assay (OMCL01203 probe); assay type: biochemical; parameters: key: Pos, positive; Neg, negative
# Method: as §2, §3
# [42] = tested on: VIM; test: Fluorogenic assay (OMCL01203 probe); assay type: biochemical; parameters: key: Pos, positive; Neg, negative
# Method: as §2, §3
# [43] = tested on: OXA; test: Fluorogenic assay (OMCL01203 probe); assay type: biochemical; parameters: key: Pos, positive; Neg, negative
# Method: as §2, §3
# [44] = tested on: NDM/OXA; test: Fluorogenic assay (OMCL01203 probe); assay type: biochemical; parameters: key: Pos, positive; Neg, negative; details: NDM/OXA co-producing; Klebsiella pneumoniae; 1 isolate
# Method: as §2, §3
# [45] = tested on: GES; test: Fluorogenic assay (OMCL01203 probe); assay type: biochemical; parameters: key: Pos, positive; Neg, negative; details: Escherichia coli, 2 isolates
# Method: as §2, §3
# [46] = tested on: IMP; test: Fluorogenic assay (OMCL01203 probe); assay type: biochemical; parameters: key: Pos, positive; Neg, negative; details: Escherichia coli, 1 isolate
# Method: as §2, §3
# [47] = tested on: NDM; test: Fluorogenic assay (OMCL01203 probe); assay type: biochemical; parameters: key: Pos, positive; Neg, negative
# Method: as §2, §3
# [48] = tested on: non-CP-CRE; test: Fluorogenic assay (OMCL01203 probe); assay type: biochemical; parameters: key: Pos, positive; Neg, negative
# Method: as §2, §3
# [49] = tested on: non-producer; test: Fluorogenic assay (OMCL01203 probe); assay type: biochemical; parameters: key: Pos, positive; Neg, negative
# Method: as §2, §3
# [50] = tested on: Non-CP CRE; test: Fluorescent probe detection in lysed clinical isolates; assay type: biochemical
# Method: as §1, §2
# [51] = tested on: CPE (carbapenemase-producing Enterobacteriaceae); test: as above; assay type: biochemical; details: CPE total; 61 isolates
# Method: as §1, §2
# [52] = Citrobacter freundii, 1 isolate
# [53] = Klebsiella pneumoniae, 1 isolate
smiles,measurement,setting,value
"C[C@@H](O)[C@H]1C(=O)N2C(C(=O)O)=C(S[C@@H]3CN[C@H](C(=O)Nc4cccc(C(=O)O)c4)C3)[C@H](C)[C@H]12 [ERT, ertapenem]",MIC,[1],> 16 µg/mL
same,MIC,[2],> 16 µg/mL
same,MIC,[3],16 µg/mL
same,MIC,[4],8 µg/mL
same,MIC,[5],2 µg/mL
same,MIC,[6],2 to 16 µg/mL
same,MIC,[7],> 16 µg/mL
same,MIC,[8],≤ 0.125 µg/mL
same,MIC,[9],> 16 µg/mL
same,MIC,[10],≤ 0.125 µg/mL
same,MIC,[11],0.5 µg/mL
same,MIC,[12],1 µg/mL
same,MIC,[13],> 16 µg/mL
same,MIC,[14],4 µg/mL
same,MIC,[15],> 16 µg/mL
same,MIC,[16],1 µg/mL
same,MIC,[17],> 16 µg/mL
same,MIC,[18],> 16 µg/mL
same,MIC,[19],> 16 µg/mL
same,MIC,[20],2 µg/mL
"C[C@@H](O)[C@H]1C(=O)N2C(C(=O)O)=C(S[C@@H]3CN[C@H](C(=O)N(C)C)C3)[C@H](C)[C@H]12 [MEM, meropenem]",MIC,[1],> 16 µg/mL
same,MIC,[21],0.25 to 8 µg/mL
same,MIC,[2],> 16 µg/mL
same,MIC,[3],4 µg/mL
same,MIC,[4],4 µg/mL
same,MIC,[5],0.5 µg/mL
same,MIC,[22],0.5 to 16 µg/mL
same,MIC,[7],> 16 µg/mL
same,MIC,[8],≤ 0.25 µg/mL
same,MIC,[9],> 16 µg/mL
same,MIC,[10],≤ 0.25 µg/mL
same,MIC,[11],1 µg/mL
same,MIC,[23],0.25 to 4 µg/mL
same,MIC,[12],2 µg/mL
same,MIC,[24],≤ 0.25 µg/mL
same,MIC,[13],8 µg/mL
same,MIC,[14],1 µg/mL
same,MIC,[15],16 µg/mL
same,MIC,[25],0.5 to 8 µg/mL
same,MIC,[16],0.5 µg/mL
same,MIC,[17],> 16 µg/mL
same,MIC,[18],16 µg/mL
same,MIC,[19],> 16 µg/mL
same,MIC,[26],2 to 8 µg/mL
same,MIC,[27],0.5 to 16 µg/mL
same,MIC,[20],4 µg/mL
C[C@@H](O)[C@H]1C(=O)N2C(C(=O)O)=C(COc3ccc(COc4ccc5ccc(=O)oc5c4)cc3)[C@H](C)[C@H]12 [OMCL01203],Pos. %,[28],100%
same,result(s) (isolates determined positive),[28],33
same,Pos. %,[29],100%
same,result(s) (isolates determined positive),[29],2
same,Pos. %,[30],100%
same,result(s) (isolates determined positive),[30],7
same,Pos. %,[31],83%
same,result(s) (isolates determined positive),[31],5
same,Pos. %,[32],100%
same,result(s) (isolates determined positive),[32],1
same,Pos. %,[33],100%
same,result(s) (isolates determined positive),[33],2
same,Pos. %,[34],100%
same,result(s) (isolates determined positive),[34],1
same,Pos. %,[35],89%
same,result(s) (isolates determined positive),[35],8
same,Fluore result,[36]; isolates testing negative,Neg(2)
same,Fluore result,[36]; isolates testing positive,Pos(1);
same,Fluore result,[37],Neg(1)
same,determination of negative bacteria,[38],negative
same,Fluore result,[39]; [52],Pos
same,Fluore result,"[39]; Escherichia coli, 3 isolates",Pos
same,Fluore result,"[39]; Klebsiella aerogenes, 1 isolate",Pos
same,Fluore result,"[39]; Klebsiella oxytoca, 1 isolate",Pos
same,Fluore result,"[39]; Klebsiella pneumoniae, 30 isolates",Pos
same,Fluore result,[40],Pos
same,Fluore result,"[41]; Escherichia coli, 29 isolates",Neg
same,Fluore result,"[41]; Klebsiella pneumoniae, 24 isolates",Neg
same,Fluore result,"[42]; Citrobacter freundii, 4 isolates",Pos
same,Fluore result,"[42]; Enterobacter cloacae, 1 isolate",Pos
same,Fluore result,"[42]; Klebsiella oxytoca, 1 isolate",Pos
same,Fluore result,[42]; [53],Pos
same,Fluore result,[43]; [52],Pos
same,Fluore result,"[43]; Klebsiella pneumoniae, 2 isolates",Pos
same,Fluore result,[44],Pos
same,Fluore result,[45],Pos
same,Fluore result,[46],Pos
same,Fluore result,[47]; [52],Pos
same,Fluore result,"[47]; Enterobacter cloacae, 2 isolates",Pos
same,Fluore result,"[47]; Escherichia coli, 4 isolates",Pos
same,Fluore result,[47]; [53],Pos
same,Fluore result,"[47]; Morganella morganii, 1 isolate",Pos
same,Fluore result,[48]; [52],Neg
same,Fluore result,"[48]; Enterobacter amnigenus, 4 isolates",Neg
same,Fluore result,"[48]; Enterobacter cloacae, 10 isolates",Neg
same,Fluore result,"[48]; Escherichia coli, 8 isolates",Neg
same,Fluore result,"[48]; Klebsiella aerogenes, 3 isolates",Neg
same,Fluore result,"[48]; Klebsiella pneumoniae, 22 isolates",Neg
same,Fluore result,"[49]; Escherichia coli, 32 isolates",Neg
same,Fluore result,"[49]; Klebsiella pneumoniae, 21 isolates",Neg
same,Pos. %,"[50]; Non-CP CRE, 40 isolates",0%
same,result(s) (isolates determined positive),"[50]; Non-CP CRE, 40 isolates",0
same,determination of non-CPE species,[50]; all 40 non-CPE species,negative
same,Pos. %,[51],97%
same,result(s) (isolates determined positive),[51],59
